The values that follow come from US20120220567A1, “BENZO-FUSED OXAZEPINE COMPOUNDS AS STEAROYL-COENZYME A DELTA-9 DESATURASE INHIBITORS” (priority 2009, published 2012).

The structures appear in SMILES notation. Read-outs that look alike come from different tables or passages of the source.

In this experiment the target is T1, SCD-1 (Homo sapiens, UniProt O00767).
T1 construct: 50 μg of protein from a HepG2 cell P2 pellet; endogenous in cells; host or cells: HepG2 cells (P2 pellet)
T1 sequence (O00767 1-359): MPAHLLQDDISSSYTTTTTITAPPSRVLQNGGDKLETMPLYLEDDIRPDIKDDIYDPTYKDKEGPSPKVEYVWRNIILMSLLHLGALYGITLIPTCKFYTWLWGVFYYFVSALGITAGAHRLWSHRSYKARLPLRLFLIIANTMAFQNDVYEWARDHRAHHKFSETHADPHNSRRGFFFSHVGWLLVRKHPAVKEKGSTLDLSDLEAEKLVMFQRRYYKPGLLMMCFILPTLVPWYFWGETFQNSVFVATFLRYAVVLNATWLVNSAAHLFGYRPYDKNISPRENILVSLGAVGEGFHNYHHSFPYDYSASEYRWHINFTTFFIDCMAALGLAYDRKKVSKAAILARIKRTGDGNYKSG
The experiment can be described thus: Stearoyl-CoA desaturase assay (HepG2 cell P2 pellet). Type of experiment: biochemical. As to conditions: protein from HepG2 cell P2 pellet, 20 μM stearoyl-CoA, 15 min at 25° C., read-out: Ave IC50. On the procedure:
Stearoyl-CoA desaturase assays were performed in according to Talamo and Bloch. […] Assays were run in triplicate in 100-μl volumes of 100 mM TrisHCl, pH 7.3, containing 20 μM stearoyl-CoA, 2 mM β-NADH, and 50 μg of protein from a HepG2 cell P2 pellet. Since SCD-1 is the only isoform of SCD expressed in these cells, the assay is specific for SCD-1 with these cells as the source of enzyme. Reaction mixtures were incubated fifteen minutes at 25° C. and reactions were then stopped with a volume of trichloroacetic acid giving a final concentration of 0.2%. After five minutes, a 90-μl volume was transferred to a Millipore Multiscreen HTS 96-well filtration plate (MSHVN4B50) containing 125 μl of 10% charcoal in each well, to which vacuum had been previously applied. Plates were shaken fifteen minutes and then filtered into a collection plate. Fifty-μI volumes of filtrate were transferred to another plate containing 150 μl of MicroScint 40 for counting on a TopCount scintillation counter.

Setting [1] is: Table 2, compounds of formula (Ib).
The mark [2] stands for this setting: Table 3, compounds of formula (Ic).

Turning to `Cc1ccc(CNC(=O)c2cnc(N3CCC4(CC3)CCN(Cc3ccc(C(C)(C)C)cc3)c3cccc(F)c3O4)s2)o1` [Compound 104], the IC50 under setting [1] lay in the range of 50 to 499 nM.

For `CN(C)CCNC(=O)c1cnc(N2CCC3(CC2)CCN(Cc2ccc(C(C)(C)C)cc2)c2cccc(F)c2O3)s1` [Compound 105], the IC50 under setting [1] is above 10000 nM.

As for `CC(C)(C)c1ccc(CN2CCC3(CCN(c4ncc(C(=O)NCc5ccccn5)s4)CC3)Oc3c(F)cccc32)cc1` [Compound 106], the IC50 under setting [1] is above 10000 nM.

With `CN(C)CCCNC(=O)c1cnc(N2CCC3(CC2)CCN(Cc2ccc(C(C)(C)C)cc2)c2cccc(F)c2O3)s1` [Compound 107], the IC50 under setting [1] was 500 to 10000 nM.

In the case of `COCCCNC(=O)c1cnc(N2CCC3(CC2)CCN(Cc2ccc(C(C)(C)C)cc2)c2cccc(F)c2O3)s1` [Compound 108], the IC50 under setting [1] is 50 to 499 nM.

As for `CC(C)CCNC(=O)c1cnc(N2CCC3(CC2)CCN(Cc2ccc(C(C)(C)C)cc2)c2cccc(F)c2O3)s1` [Compound 109], the half-maximal inhibitory concentration (IC50) under setting [1] was in the range of 500 to 10000 nM.

In the case of `C[C@H](O)CNC(=O)c1cnc(N2CCC3(CC2)CCN(Cc2ccc(C(C)(C)C)cc2)c2cccc(F)c2O3)s1` [Compound 110], the IC50 under setting [1] fell in the range of 0.5 to 49 nM.

As for `CC(C)(C)c1ccc(CN2CCC3(CCN(c4ncc(C(=O)NCCc5c[nH]cn5)s4)CC3)Oc3c(F)cccc32)cc1` [Compound 111], the IC50 under setting [1] was above 10000 nM.

`Cc1cnc(CNC(=O)c2cnc(N3CCC4(CC3)CCN(Cc3ccc(C(C)(C)C)cc3)c3cccc(F)c3O4)s2)cn1` [Compound 112]: the IC50 under setting [1] was 500 to 10000 nM.

Consider `CC(C)(C)c1ccc(CN2CCC3(CCN(c4ncc(C(=O)NCCN5CCNC5=O)s4)CC3)Oc3c(F)cccc32)cc1` [Compound 113], for which, under setting [1], the half-maximal inhibitory concentration (IC50) lay in the range of 500 to 10000 nM.

Turning to `CC(C)(C)OC(=O)CNC(=O)c1cnc(N2CCC3(CC2)CCN(Cc2ccc(C(C)(C)C)cc2)c2cccc(F)c2O3)s1` [Compound 115], the IC50 under setting [1] fell in the range of 0.5 to 49 nM.

Turning to `CC(C)(C)OC(=O)CCNC(=O)c1cnc(N2CCC3(CC2)CCN(Cc2ccc(C(C)(C)C)cc2)c2cccc(F)c2O3)s1` [Compound 116], the IC50 under setting [1] lay in the range of 0.5 to 49 nM.

Consider `CC(C)(C)c1ccc(CN2CCC3(CCN(c4ncc(C(=O)NCCCN5CCCC5)s4)CC3)Oc3c(F)cccc32)cc1` [Compound 117], for which the IC50 under setting [1] is above 10000 nM.

Turning to `CC(C)(C)c1ccc(CN2CCC3(CCN(c4ncc(C(=O)NCC(O)c5ccccn5)s4)CC3)Oc3c(F)cccc32)cc1` (centres unmarked) [Compound 118], the IC50 under setting [1] lay in the range of 50 to 499 nM.

Consider `CC(C)(C)c1ccc(CN2CCC3(CCN(c4ncc(C(=O)NCCn5ccnc5)s4)CC3)Oc3c(F)cccc32)cc1` [Compound 119], for which the IC50 under setting [1] was above 10000 nM.

Take `Cn1cncc1CNC(=O)c1cnc(N2CCC3(CC2)CCN(Cc2ccc(C(C)(C)C)cc2)c2cccc(F)c2O3)s1` [Compound 121]: under setting [1], the IC50 is above 10000 nM.

Turning to `CC(C)(C)CCNC(=O)c1cnc(N2CCC3(CC2)CCN(Cc2ccc(C(C)(C)C)cc2)c2cccc(F)c2O3)s1` [Compound 122], the IC50 under setting [1] was above 10000 nM.

As for `CC(C)(C)c1ccc(CN2CCC3(CCN(c4ncc(C(=O)NCCC(=O)O)s4)CC3)Oc3c(F)cccc32)cc1` [Compound 123], the concentration for half-maximal inhibition (IC50) under setting [1] fell in the range of 0.5 to 49 nM.

As to `CC(C)(C)c1ccc(CN2CCC3(CCN(c4ncc(C(=O)NCCCCCC(=O)O)s4)CC3)Oc3c(F)cccc32)cc1` [Compound 124], the IC50 under setting [1] fell in the range of 500 to 10000 nM.

Turning to `CC(C)(C)OC(=O)CCNC(=O)c1cnc(N2CCC3(CC2)CCN(Cc2ccc(C(C)(C)C)cc2)c2ccccc2O3)s1` [Compound 125], the IC50 under setting [1] was in the range of 500 to 10000 nM.

On to `CC(C)(C)c1ccc(CN2CCC3(CCN(c4ncc(C(=O)NC[C@H](O)CO)s4)CC3)Oc3ccccc32)cc1` [Compound 126], for which the IC50 under setting [1] lay within 0.5 to 49 nM.

Take `N#Cc1cnc(N2CCC3(CC2)CCN(Cc2cccc(C(F)(F)F)c2)c2ccccc2O3)s1` [Compound 127]: the half-inhibitory concentration (IC50) under setting [1] is 0.5 to 49 nM.

As to `O=C(O)CCNC(=O)c1cnc(N2CCC3(CC2)CCN(Cc2cccc(C(F)(F)F)c2)c2ccccc2O3)s1` [Compound 129], the IC50 under setting [1] fell in the range of 0.5 to 49 nM.

`CC(C)(C)c1ccc(CN2CCC3(CCN(c4ncc(C(=O)NCCC(=O)O)s4)CC3)Oc3ccccc32)cc1` [Compound 130]: the IC50 under setting [1] fell in the range of 0.5 to 49 nM.

As to `O=C(NCCCO)c1cnc(N2CCC3(CC2)CCN(Cc2cccc(C(F)(F)F)c2)c2cccc(F)c2O3)s1` [Compound 131], the IC50 under setting [1] lay within 0.5 to 49 nM.

As to `O=C(NC[C@H](O)CO)c1cnc(N2CCC3(CC2)CCN(Cc2cccc(C(F)(F)F)c2)c2cccc(F)c2O3)s1` [Compound 132], the IC50 under setting [1] lay in the range of 0.5 to 49 nM.

Consider `O=C(O)CCNC(=O)c1cnc(N2CCC3(CC2)CCN(Cc2cccc(C(F)(F)F)c2)c2cccc(F)c2O3)s1` [Compound 133], for which the IC50 under setting [1] is 0.5 to 49 nM.

Take `CC(C)(C)c1ccc(CN2CCC3(CCN(c4ncc(C(=O)NCCCO)s4)CC3)Oc3ccccc32)cc1` [Compound 134]: the IC50 under setting [1] was 0.5 to 49 nM.

For `CC(C)(C)c1ccc(CN2CCC3(CCN(c4ncc(-c5cncnc5)s4)CC3)Oc3ccccc32)cc1` [Compound 135], the IC50 under setting [1] lay in the range of 50 to 499 nM.

Regarding `O=C(O)CNC(=O)c1cnc(N2CCC3(CC2)CCN(Cc2cccc(C(F)(F)F)c2)c2ccccc2O3)s1` [Compound 136], under setting [1], the IC50 is 0.5 to 49 nM.

On to `CC(C)(C)c1ccc(CN2CCC3(CCN(c4ncc(-c5ccc(C#N)cc5)s4)CC3)Oc3ccccc32)cc1` [Compound 137], for which the IC50 under setting [1] was in the range of 500 to 10000 nM.

For `CC(C)(C)c1ccc(CN2CCC3(CCN(c4ncc(-c5ccccc5)s4)CC3)Oc3ccccc32)cc1` [Compound 138], the IC50 under setting [1] lay within 500 to 10000 nM.

As to `COC(=O)c1ccc(N2CCC3(CC2)CCN(Cc2ccc(C(C)(C)C)cc2)c2ccccc2O3)nn1` [Compound 139], the IC50 under setting [2] was in the range of 500 to 10000 nM.

Turning to `CC(C)(C)c1ccc(CN2CCC3(CCN(c4ccc(C(=O)NCCC5CC5)nn4)CC3)Oc3ccccc32)cc1` [Compound 140], under setting [2], the IC50 lay in the range of 0.5 to 49 nM.

Consider `COC(=O)c1ccc(N2CCC3(CC2)CCN(Cc2ccc(C(C)(C)C)cc2)c2cccc(F)c2O3)nc1` [Compound 143], for which the IC50 under setting [2] was in the range of 50 to 499 nM.

In the case of `CC(C)(C)c1ccc(CN2CCC3(CCN(c4ccc(C(=O)NCCc5ccncc5)nn4)CC3)Oc3c(F)cccc32)cc1` [Compound 144], the IC50 under setting [2] was 0.5 to 49 nM.

`CC(C)(C)c1ccc(CN2CCC3(CCN(c4ccc(C(=O)O)cn4)CC3)Oc3c(F)cccc32)cc1` [Compound 145]: the IC50 under setting [2] lay in the range of 50 to 499 nM.

As to `CC(C)(C)c1ccc(CN2CCC3(CCN(c4ccc(C(=O)NCCc5c[nH]cn5)cn4)CC3)Oc3c(F)cccc32)cc1` [Compound 148], the IC50 under setting [2] lay in the range of 500 to 10000 nM.

Turning to `CC(C)(C)c1ccc(CN2CCC3(CCN(c4ccc(C(=O)NCCC5CC5)nn4)CC3)Oc3c(F)cccc32)cc1` [Compound 150], under setting [2], the IC50 is 50 to 499 nM.

As for `O=C(NCCC1CC1)c1ccc(N2CCC3(CC2)CCN(Cc2cccc(C(F)(F)F)c2)c2ccccc2O3)nn1` [Compound 151], under setting [2], the IC50 lay in the range of 0.5 to 49 nM.

With `CN(C)CCNC(=O)c1ccc(N2CCC3(CC2)CCN(Cc2cccc(C(F)(F)F)c2)c2ccccc2O3)nn1` [Compound 154], the half-inhibitory concentration (IC50) under setting [2] was in the range of 500 to 10000 nM.

Regarding `O=C(NCCc1ccccc1)c1ccc(N2CCC3(CC2)CCN(Cc2cccc(C(F)(F)F)c2)c2ccccc2O3)nn1` [Compound 155], the IC50 under setting [2] lay within 0.5 to 49 nM.

For the compound `CCCCNC(=O)c1ccc(N2CCC3(CC2)CCN(Cc2cccc(C(F)(F)F)c2)c2ccccc2O3)nn1` [Compound 156], the 50% inhibitory concentration (IC50) under setting [2] was in the range of 0.5 to 49 nM.

For the compound `CCCNC(=O)c1ccc(N2CCC3(CC2)CCN(Cc2cccc(C(F)(F)F)c2)c2ccccc2O3)nn1` [Compound 157], under setting [2], the IC50 was 50 to 499 nM.
